# Patent US9723840B2 (SYNGENTA PARTICIPATIONS AG, priority 2013, dated 2017)
# How the values were obtained:
# Assay type in all cases: in vivo
# Amaranthus retroflexus [1] = test: Pre-emergence herbicidal activity, AMARE; set-up: key: 5=total damage to plant; 0=no damage to plant; settings: 1000 g/Ha, pre-emergence spray, evaluated after 13 days, scale 0-5
# Procedure: (§1) Seeds of a variety of test species were sown in standard soil in pots. After cultivation for one day (pre-emergence) under controlled conditions in a glasshouse (at 24/16° C., day/night; 14 hours light; 65% humidity), the plants were sprayed with an aqueous spray solution derived from the formulation of the technical active ingredient in acetone/water (50:50) solution containing 0.5% Tween 20 (polyoxyethelyene sorbitan monolaurate, CAS RN 9005-64-5). The test plants were then grown in a glasshouse under controlled conditions (at 24/16° C., day/night; 14 hours light; 65% humidity) and watered twice daily. After 13 days, the test was evaluated (5=total damage to plant; 0=no damage to plant).
# Abutilon theophrasti [2] = test: Pre-emergence herbicidal activity, ABUTH; set-up: key: 5=total damage to plant; 0=no damage to plant; settings: 1000 g/Ha, pre-emergence spray, evaluated after 13 days, scale 0-5
# Procedure: as §1
# Setaria faberi [3] = test: Pre-emergence herbicidal activity, SETFA; set-up: key: 5=total damage to plant; 0=no damage to plant; settings: 1000 g/Ha, pre-emergence spray, evaluated after 13 days, scale 0-5
# Procedure: as §1
# Echinochloa crus-galli [4] = test: Pre-emergence herbicidal activity, ECHCG; set-up: key: 5=total damage to plant; 0=no damage to plant; settings: 1000 g/Ha, pre-emergence spray, evaluated after 13 days, scale 0-5
# Procedure: as §1
# Alopecurus myosuroides [5] = test: Pre-emergence herbicidal activity, ALOMY; settings: 1000 g/Ha, pre-emergence spray, evaluated after 13 days, scale 0-5
# Procedure: as §1
# Zea mays [6] = test: Pre-emergence herbicidal activity, ZEAMX; settings: 1000 g/Ha, pre-emergence spray, evaluated after 13 days, scale 0-5
# Procedure: as §1
# Amaranthus retroflexus [7] = test: Post-emergence herbicidal activity, AMARE; set-up: key: 5=total damage to plant; 0=no damage to plant; settings: 1000 g/Ha, post-emergence spray (8 days cultivation), evaluated after 13 days, scale 0-5
# Procedure: (§2) Seeds of a variety of test species were sown in standard soil in pots. After 8 days cultivation (post-emergence) under controlled conditions in a glasshouse (at 24/16° C., day/night; 14 hours light; 65% humidity), the plants were sprayed with an aqueous spray solution derived from the formulation of the technical active ingredient in acetone/water (50:50) solution containing 0.5% Tween 20 (polyoxyethelyene sorbitan monolaurate, CAS RN 9005-64-5). The test plants were then grown in a glasshouse under controlled conditions (at 24/16° C., day/night; 14 hours light; 65% humidity) and watered twice daily. After 13 days, the test was evaluated (5=total damage to plant; 0=no damage to plant).
# Abutilon theophrasti [8] = test: Post-emergence herbicidal activity, ABUTH; set-up: key: 5=total damage to plant; 0=no damage to plant; settings: 1000 g/Ha, post-emergence spray (8 days cultivation), evaluated after 13 days, scale 0-5
# Procedure: as §2
# Alopecurus myosuroides [9] = test: Post-emergence herbicidal activity, ALOMY; set-up: key: 5=total damage to plant; 0=no damage to plant; settings: 1000 g/Ha, post-emergence spray (8 days cultivation), evaluated after 13 days, scale 0-5
# Procedure: as §2
# Echinochloa crus-galli [10] = test: Post-emergence herbicidal activity, ECHCG; set-up: key: 5=total damage to plant; 0=no damage to plant; settings: 1000 g/Ha, post-emergence spray (8 days cultivation), evaluated after 13 days, scale 0-5
# Procedure: as §2
# Zea mays [11] = test: Post-emergence herbicidal activity, ZEAMX; set-up: key: 5=total damage to plant; 0=no damage to plant; settings: 1000 g/Ha, post-emergence spray (8 days cultivation), evaluated after 13 days, scale 0-5
# Procedure: as §2
# Setaria faberi [12] = test: Post-emergence herbicidal activity, SETFA; set-up: key: 5=total damage to plant; 0=no damage to plant; settings: 1000 g/Ha, post-emergence spray (8 days cultivation), evaluated after 13 days, scale 0-5
# Procedure: as §2
Compound,"AMARE damage score, application pre-emergence (Amaranthus retroflexus [1])","ABUTH damage score, application pre-emergence (Abutilon theophrasti [2])","SETFA damage score, application pre-emergence (Setaria faberi [3])","ECHCG damage score, application pre-emergence (Echinochloa crus-galli [4])","ALOMY damage score, application pre-emergence (Alopecurus myosuroides [5])","ZEAMX damage score, application pre-emergence (Zea mays [6])","AMARE damage score, application post-emergence (Amaranthus retroflexus [7])","ABUTH damage score, application post-emergence (Abutilon theophrasti [8])","ALOMY damage score, application post-emergence (Alopecurus myosuroides [9])","ECHCG damage score, application post-emergence (Echinochloa crus-galli [10])","ZEAMX damage score, application post-emergence (Zea mays [11])","SETFA damage score, application post-emergence (Setaria faberi [12])"
CN1CC(O)N(c2cc(C(C)(C)F)c(Cl)nn2)C1=O (stereo not drawn) [Example A1],5,5,5,5,4,4,5,5,5,5,5,5
CC1C(O)N(c2cc(C(C)(C)F)c(-c3ccccc3)nn2)C(=O)N1C (stereo not drawn) [Example A3],5,5,5,4,4,3,5,5,4,5,4,5
CC1C(O)N(c2ccc(C(=O)NC(C)(C)C)nn2)C(=O)N1C (stereo not drawn) [Example A15],5,5,4,5,4,3,5,5,5,5,5,5
COC1C(O)N(c2cc(C(C)(C)F)c(Cl)nn2)C(=O)N1C (stereo not drawn) [Example A8],5,5,5,5,4,3,5,5,4,5,4,5
CC1C(O)N(c2ccc(C(=O)NC(C)(C)C#N)nn2)C(=O)N1C (stereo not drawn) [Example A13],5,5,4,4,4,3,5,5,4,3,1,5
"CN1CC(O)N(c2cc(C(F)(F)F)cnn2)C1=O (stereo not drawn) [Example A7, 4-hydroxy-1-methyl-3-[5-(trifluoromethyl)pyridazin-3-yl]imidazolidin-2-one]",5,5,5,5,4,2,5,5,5,5,5,5
"CC1C(O)N(c2cc(C(C)(C)F)c(Cl)nn2)C(=O)N1C (stereo not drawn) [Example A2, 1-[6-chloro-5-(1-fluoro-1-methyl-ethyl)pyridazin-3-yl]-5-hydroxy-3,4-dimethyl-imidazolidin-2-one]",5,5,5,4,4,3,5,5,4,5,5,5
CC1C(O)N(c2cc(C(C)(F)F)c(Cl)nn2)C(=O)N1C (stereo not drawn) [Example A11],5,5,5,5,4,4,5,5,5,5,5,5
"CON1C(=O)N(c2cc(C(C)(C)F)c(Cl)nn2)C(O)C1C (stereo not drawn) [Example A6, 1-[6-chloro-5-(1-fluoro-1-methyl-ethyl)pyridazin-3-yl]-5-hydroxy-3-methoxy-4-methyl-imidazolidin-2-one]",5,5,4,4,3,3,5,5,4,5,5,5
CON1C(=O)N(c2cc(C(C)(F)F)c(Cl)nn2)C(O)C1C (stereo not drawn) [Example A12],5,5,5,5,3,3,5,5,5,5,3,5
